# Measured values from ChEMBL document CHEMBL4825673, “Total and Semisyntheses of Polymyxin Analogues with 2-Thr or 10-Thr Modifications to Decipher the Structure-Activity Relationship and Improve the Antibacterial Activity” (J Med Chem, 2021).
# Starred links: 1 amine or outer side, 2 acyl side, 3 side chain; linkers in the order of their positions; H or OH if unused. Positions of bridges follow the written chain, without caps; N, C: chain ends. Non-standard residues stand in square brackets, D forms with d. Residues, ends and D or L forms follow the SMILES beside them. *: point of attachment. Heptanoyl(6-Me) = CC(C)CCCCC(=O)*; NH(2-ClPh) = Clc1ccccc1N*; Dab = NCC[C@H](N)C(=O)O; CO = O=C([*:1])[*:2]
# Test system: Pseudomonas aeruginosa
# Assay: Antibacterial activity against Pseudomonas aeruginosa PAO1 assessed as inhibition of bacterial growth incubated for 24 hrs by broth microdilution method
# Format: functional
# Settings: read-out: MIC100
row,MIC,SMILES
1,4 µg/mL,CC[C@H](C)CCCCC(=O)N[C@@H](CCN)C(=O)N[C@H](C(=O)N[C@@H](CCN)C(=O)N[C@H]1CCNC(=O)[C@H]([C@@H](C)O)NC(=O)[C@H](CCN)NC(=O)[C@H](CCN)NC(=O)[C@H](CC(C)C)NC(=O)[C@@H](Cc2ccccc2)NC(=O)[C@H](CCN)NC1=O)[C@@H](C)OC(=O)[C@@H](N)CC(C)C
2,2 µg/mL,CC[C@H](C)CCCCC(=O)N[C@@H](CCN)C(=O)N[C@H](C(=O)N[C@@H](CCN)C(=O)N[C@H]1CCNC(=O)[C@H]([C@@H](C)O)NC(=O)[C@H](CCN)NC(=O)[C@H](CCN)NC(=O)[C@H](CC(C)C)NC(=O)[C@@H](Cc2ccccc2)NC(=O)[C@H](CCN)NC1=O)[C@@H](C)OC(=O)[C@@H]1CCCN1
3,1 µg/mL,CC[C@H](C)CCCCC(=O)N[C@@H](CCN)C(=O)N[C@H](C(=O)N[C@@H](CCN)C(=O)N[C@H]1CCNC(=O)[C@H]([C@@H](C)O)NC(=O)[C@H](CCN)NC(=O)[C@H](CCN)NC(=O)[C@H](CC(C)C)NC(=O)[C@@H](Cc2ccccc2)NC(=O)[C@H](CCN)NC1=O)[C@@H](C)OC(=O)[C@@H](N)CCC(=O)O
4,128 µg/mL,CC(C)CCCCC(=O)N[C@@H](CCN)C(=O)N[C@@H](CCC(N)=O)C(=O)N[C@@H](CCN)C(=O)N[C@H]1CCNC(=O)[C@H]([C@@H](C)O)NC(=O)[C@H](CCN)NC(=O)[C@H](CCN)NC(=O)[C@H](CC(C)C)NC(=O)[C@@H](Cc2ccccc2)NC(=O)[C@H](CCN)NC1=O
5,2 µg/mL,CC[C@H](C)CCCCC(=O)N[C@@H](CCN)C(=O)N[C@H](C(=O)N[C@@H](CCN)C(=O)N[C@H]1CCNC(=O)[C@H]([C@@H](C)OC(=O)CN)NC(=O)[C@H](CCN)NC(=O)[C@H](CCN)NC(=O)[C@H](CC(C)C)NC(=O)[C@@H](Cc2ccccc2)NC(=O)[C@H](CCN)NC1=O)[C@@H](C)OC(=O)CN
6,2 µg/mL,CC[C@H](C)CCCCC(=O)N[C@@H](CCN)C(=O)N[C@H](C(=O)N[C@@H](CCN)C(=O)N[C@H]1CCNC(=O)[C@H]([C@@H](C)O)NC(=O)[C@H](CCN)NC(=O)[C@H](CCN)NC(=O)[C@H](CC(C)C)NC(=O)[C@@H](Cc2ccccc2)NC(=O)[C@H](CCN)NC1=O)[C@@H](C)OC(=O)[C@@H](N)Cc1c[nH]cn1
7,64 µg/mL,CC(C)CCCCC(=O)N[C@@H](CCN)C(=O)N[C@@H](CC(=O)O)C(=O)N[C@@H](CCN)C(=O)N[C@H]1CCNC(=O)[C@H]([C@@H](C)O)NC(=O)[C@H](CCN)NC(=O)[C@H](CCN)NC(=O)[C@H](CC(C)C)NC(=O)[C@@H](Cc2ccccc2)NC(=O)[C@H](CCN)NC1=O
8,8 µg/mL,CC(NCC[C@H](NC(=O)[C@H](CCN)NC(=O)CCCCC(C)C)C(=O)N[C@@H](CCN)C(=O)N[C@H]1CCNC(=O)[C@H]([C@@H](C)O)NC(=O)[C@H](CCN)NC(=O)[C@H](CCN)NC(=O)[C@H](CC(C)C)NC(=O)[C@@H](Cc2ccccc2)NC(=O)[C@H](CCN)NC1=O)=C1C(=O)CC(C)(C)CC1=O
9,2 µg/mL,CC(C)CCCCC(=O)N[C@@H](CCN)C(=O)N[C@H](C(=O)N[C@@H](CCN)C(=O)N[C@H]1CCNC(=O)[C@H]([C@@H](C)O)NC(=O)[C@H](CCN)NC(=O)[C@H](CCN)NC(=O)[C@H](CC(C)C)NC(=O)[C@@H](Cc2ccccc2)NC(=O)[C@H](CCN)NC1=O)[C@@H](C)OC(=O)[C@@H](N)[C@@H](C)O
10,2 µg/mL,CC[C@H](C)CCCCC(=O)N[C@@H](CCN)C(=O)N[C@H](C(=O)N[C@@H](CCN)C(=O)N[C@H]1CCNC(=O)[C@H]([C@@H](C)O)NC(=O)[C@H](CCN)NC(=O)[C@H](CCN)NC(=O)[C@H](CC(C)C)NC(=O)[C@@H](Cc2ccccc2)NC(=O)[C@H](CCN)NC1=O)[C@@H](C)OC(=O)[C@@H](N)CCSC
11,2 µg/mL,CC[C@H](C)CCCCC(=O)N[C@@H](CCN)C(=O)N[C@H](C(=O)N[C@@H](CCN)C(=O)N[C@H]1CCNC(=O)[C@H]([C@@H](C)O)NC(=O)[C@H](CCN)NC(=O)[C@H](CCN)NC(=O)[C@H](CC(C)C)NC(=O)[C@@H](Cc2ccccc2)NC(=O)[C@H](CCN)NC1=O)[C@@H](C)OC(=O)[C@@H](N)CCCCN
12,4 µg/mL,CC[C@H](C)CCCCC(=O)N[C@@H](CCN)C(=O)N[C@H](C(=O)N[C@@H](CCN)C(=O)N[C@H]1CCNC(=O)[C@H]([C@@H](C)O)NC(=O)[C@H](CCN)NC(=O)[C@H](CCN)NC(=O)[C@H](CC(C)C)NC(=O)[C@@H](Cc2ccccc2)NC(=O)[C@H](CCN)NC1=O)[C@@H](C)OC(=O)[C@H](C)N
13,1 µg/mL,CC(C)CCCCC(=O)N[C@@H](CCN)C(=O)N[C@H](C(=O)N[C@@H](CCN)C(=O)N[C@H]1CCNC(=O)[C@H]([C@@H](C)O)NC(=O)[C@H](CCN)NC(=O)[C@H](CCN)NC(=O)[C@H](CC(C)C)NC(=O)[C@@H](Cc2ccccc2)NC(=O)[C@H](CCN)NC1=O)[C@@H](C)OC(=O)[C@@H](N)CC(N)=O
14,64 µg/mL,CCCCCCCC(=O)N[C@@H](CCN)C(=O)NCC(=O)N[C@@H](CCN)C(=O)N[C@H]1CCNC(=O)[C@H]([C@@H](C)O)NC(=O)[C@H](CCN)NC(=O)[C@H](CCN)NC(=O)[C@H](CC(C)C)NC(=O)[C@@H](Cc2ccccc2)NC(=O)[C@H](CCN)NC1=O
15,32 µg/mL,CC(C)C[C@@H]1NC(=O)[C@@H](Cc2ccccc2)NC(=O)[C@H](CCN)NC(=O)[C@@H](NC(=O)[C@H](CCN)NC(=O)[C@@H](NC(=O)[C@H](CCN)NC(=O)CCCCCCCN(Cc2ccccn2)Cc2ccccn2)[C@@H](C)O)CCNC(=O)[C@H]([C@@H](C)O)NC(=O)[C@H](CCN)NC(=O)[C@H](CCN)NC1=O
16,2 µg/mL,CC[C@H](C)[C@H](N)C(=O)O[C@H](C)[C@H](NC(=O)[C@H](CCN)NC(=O)CCCCC(C)C)C(=O)N[C@@H](CCN)C(=O)N[C@H]1CCNC(=O)[C@H]([C@@H](C)O)NC(=O)[C@H](CCN)NC(=O)[C@H](CCN)NC(=O)[C@H](CC(C)C)NC(=O)[C@@H](Cc2ccccc2)NC(=O)[C@H](CCN)NC1=O
17,1 µg/mL,CC[C@H](C)CCCCC(=O)N[C@@H](CCN)C(=O)N[C@H](C(=O)N[C@@H](CCN)C(=O)N[C@H]1CCNC(=O)[C@H]([C@@H](C)O)NC(=O)[C@H](CCN)NC(=O)[C@H](CCN)NC(=O)[C@H](CC(C)C)NC(=O)[C@@H](Cc2ccccc2)NC(=O)[C@H](CCN)NC1=O)[C@@H](C)OC(=O)[C@@H](N)CO
18,4 µg/mL,CC(C)CCCCC(=O)N[C@@H](CCN)C(=O)N[C@H](C(=O)N[C@@H](CCN)C(=O)N[C@H]1CCNC(=O)[C@H]([C@@H](C)OC(=O)[C@@H](N)CC(=O)O)NC(=O)[C@H](CCN)NC(=O)[C@H](CCN)NC(=O)[C@H](CC(C)C)NC(=O)[C@@H](Cc2ccccc2)NC(=O)[C@H](CCN)NC1=O)[C@@H](C)OC(=O)[C@@H](N)CC(=O)O
19,8 µg/mL,CCCCCCCC(=O)N[C@@H](CCN)C(=O)N[C@@H](CS)C(=O)N[C@@H](CCN)C(=O)N[C@H]1CCNC(=O)[C@H]([C@@H](C)O)NC(=O)[C@H](CCN)NC(=O)[C@H](CCN)NC(=O)[C@H](CC(C)C)NC(=O)[C@@H](Cc2ccccc2)NC(=O)[C@H](CCN)NC1=O
20,2 µg/mL,CC[C@H](C)CCCCC(=O)N[C@@H](CCN)C(=O)N[C@H](C(=O)N[C@@H](CCN)C(=O)N[C@H]1CCNC(=O)[C@H]([C@@H](C)O)NC(=O)[C@H](CCN)NC(=O)[C@H](CCN)NC(=O)[C@H](CC(C)C)NC(=O)[C@@H](Cc2ccccc2)NC(=O)[C@H](CCN)NC1=O)[C@@H](C)OC(=O)[C@@H](N)C(C)C
21,4 µg/mL,CCCCCCCC(=O)N[C@@H](CCN)C(=O)N[C@H](C(=O)N[C@@H](CCN)C(=O)N[C@H]1CCNC(=O)[C@H](CCSC)NC(=O)[C@H](CCN)NC(=O)[C@H](CCN)NC(=O)[C@H](CC(C)C)NC(=O)[C@@H](Cc2ccccc2)NC(=O)[C@H](CCN)NC1=O)[C@@H](C)O
22,2 µg/mL,CC[C@H](C)CCCCC(=O)N[C@@H](CCN)C(=O)N[C@H](C(=O)N[C@@H](CCN)C(=O)N[C@H]1CCNC(=O)[C@H]([C@@H](C)O)NC(=O)[C@H](CCN)NC(=O)[C@H](CCN)NC(=O)[C@H](CC(C)C)NC(=O)[C@@H](Cc2ccccc2)NC(=O)[C@H](CCN)NC1=O)[C@@H](C)OC(=O)[C@@H](N)CS
23,2 µg/mL,CC[C@H](C)CCCCC(=O)N[C@@H](CCN)C(=O)N[C@H](C(=O)N[C@@H](CCN)C(=O)N[C@H]1CCNC(=O)[C@H]([C@@H](C)O)NC(=O)[C@H](CCN)NC(=O)[C@H](CCN)NC(=O)[C@H](CC(C)C)NC(=O)[C@@H](Cc2ccccc2)NC(=O)[C@H](CCN)NC1=O)[C@@H](C)OC(=O)[C@@H](N)CCCNC(=N)N
24,2 µg/mL,CC[C@H](C)CCCCC(=O)N[C@@H](CCN)C(=O)N[C@H](C(=O)N[C@@H](CCN)C(=O)N[C@H]1CCNC(=O)[C@H]([C@@H](C)O)NC(=O)[C@H](CCN)NC(=O)[C@H](CCN)NC(=O)[C@H](CC(C)C)NC(=O)[C@@H](Cc2ccccc2)NC(=O)[C@H](CCN)NC1=O)[C@@H](C)OC(=O)[C@@H](N)[C@@H](C)O
25,64 µg/mL,CCCCCCCC(=O)N[C@@H](CCN)C(=O)N[C@H](C(=O)N[C@@H](CCN)C(=O)N[C@H]1CCNC(=O)[C@H](CC(=O)O)NC(=O)[C@H](CCN)NC(=O)[C@H](CCN)NC(=O)[C@H](CC(C)C)NC(=O)[C@@H](Cc2ccccc2)NC(=O)[C@H](CCN)NC1=O)[C@@H](C)O
26,2 µg/mL,CC(C)CCCCC(=O)N[C@@H](CCN)C(=O)N[C@H](C(=O)N[C@@H](CCN)C(=O)N[C@H]1CCNC(=O)[C@H]([C@@H](C)OC(=O)[C@@H]2CCCN2)NC(=O)[C@H](CCN)NC(=O)[C@H](CCN)NC(=O)[C@H](CC(C)C)NC(=O)[C@@H](Cc2ccccc2)NC(=O)[C@H](CCN)NC1=O)[C@@H](C)OC(=O)[C@@H]1CCCN1
27,4 µg/mL,CC(C)C[C@@H]1NC(=O)[C@@H](Cc2ccccc2)NC(=O)[C@H](CCN)NC(=O)[C@@H](NC(=O)[C@H](CCN)NC(=O)[C@@H](NC(=O)[C@H](CCN)NC(=O)Nc2ccccc2Cl)[C@@H](C)O)CCNC(=O)[C@H]([C@@H](C)O)NC(=O)[C@H](CCN)NC(=O)[C@H](CCN)NC1=O ({NH(2-ClPh)-CO}-[Dab]T[Dab][Dab][Dab][dF]L[Dab][Dab]T; lactam 4-C)
28,32 µg/mL,CC(N[C@@H](CCN)C(=O)N[C@H](C(=O)N[C@@H](CCN)C(=O)N[C@H]1CCNC(=O)[C@H]([C@@H](C)O)NC(=O)[C@H](CCN)NC(=O)[C@H](CCN)NC(=O)[C@H](CC(C)C)NC(=O)[C@@H](Cc2ccccc2)NC(=O)[C@H](CCN)NC1=O)[C@@H](C)O)=C1C(=O)CC(C)(C)CC1=O

row,SMILES,MIC
1,CC(C)CCCCC(=O)N[C@@H](CCN)C(=O)N[C@H](C(=O)N[C@@H](CCN)C(=O)N[C@H]1CCNC(=O)[C@H]([C@@H](C)O)NC(=O)[C@H](CCN)NC(=O)[C@H](CCN)NC(=O)[C@H](CC(C)C)NC(=O)[C@@H](Cc2ccccc2)NC(=O)[C@H](CCN)NC1=O)[C@@H](C)O [POLYMYXIN B2] ({Heptanoyl(6-Me)}-[Dab]T[Dab][Dab][Dab][dF]L[Dab][Dab]T; lactam 4-C),1 µg/mL
